Converted amounts (≈) assume the structure as drawn.
Experiments:
Format in all cases: cell-based
[1] = tested on: drug resistant strains of Acinetobacter baumannii; assay: anti-drug resistant strains of Acinetobacter baumannii (MIC)
Usutu virus (USUV) = assay: anti-Usutu virus activity (inhibition rate); conditions: for inhibition at 11 µM / inhibition at 33 µM: Usutu virus
Zika virus (ZIKV) = assay: anti-Zika virus activity (inhibition rate); conditions: for inhibition at 11 µM / inhibition at 33 µM: Zika virus
dengue virus (DENV) = assay: anti-dengue virus activity (EC50)
[2] = resistant strain of Acinetobacter baumannii no. 17
[3] = resistant strain of Acinetobacter baumannii no. 18
[4] = resistant strain of Acinetobacter baumannii no. 19
[5] = resistant strain of Acinetobacter baumannii no. 20

Molecule `O=C(NNc1ccccc1)[C@@H]1Cc2ccccc2CN1` [ZSD-16] has an MIC [1, 2] of 2 µg/mL (≈ 7.48 µM), an MIC [1, 3] of 8 µg/mL (≈ 29.9 µM) and an MIC [1, 4] of 4 µg/mL (≈ 15 µM). For the same molecule, the MIC [1, 5] was 4 µg/mL (≈ 15 µM).
Work on `O=C1[C@@H]2Cc3ccccc3CN2C(c2ccc([N+](=O)[O-])cc2)N1Nc1ccccc1` (stereo partly drawn) [ZSD-18] yielded an inhibition at 11 µM (Usutu virus (USUV); Drug concentration 11 μM) of less than 0%, an inhibition at 33 µM (Usutu virus (USUV); Drug concentration 33 μM) of 0 to 100% and an inhibition at 11 µM (Zika virus (ZIKV); Drug concentration 11 μM) of less than 0%. It also gave an inhibition at 33 µM (Zika virus (ZIKV); Drug concentration 33 μM) of 0 to 100%.
In the case of `O=C1[C@@H]2Cc3ccccc3CN2C(c2ccc(O)cc2)N1Nc1ccccc1` (stereo partly drawn) [ZSD-20], the “Anti-USUV activity (inhibition rate)” value (Usutu virus (USUV); Drug concentration 11 μM) is reported as “− (−: Inactive)”, the “Anti-USUV activity (inhibition rate)” value (Usutu virus (USUV); Drug concentration 33 μM) is reported as “+ (+: Partial suppression)” and the “Anti-ZIKV activity (inhibition rate)” value (Zika virus (ZIKV); Drug concentration 11 μM) is reported as “− (−: Inactive)”. The “Anti-ZIKV activity (inhibition rate)” value (Zika virus (ZIKV); Drug concentration 33 μM) was “+++ (+++: Complete suppression)”.
Molecule `O=C1C2Cc3ccccc3CN2C(c2ccco2)N1Nc1ccccc1` (stereo not drawn) [ZSD-28B] has an MIC [1, 2] greater than 64 µg/mL, an MIC [1, 3] of 8 µg/mL (≈ 23.2 µM) and an MIC [1, 4] of 8 µg/mL (≈ 23.2 µM). The MIC [1, 5] was 8 µg/mL (≈ 23.2 µM).
With `O=C1C2Cc3ccccc3CN2C(c2ccc(O)c(O)c2)N1Nc1ccccc1` (stereo not drawn) [ZSD-30A] the “Anti-USUV activity (inhibition rate)” value (Usutu virus (USUV); Drug concentration 11 μM) was “− (−: Inactive)”, the “Anti-USUV activity (inhibition rate)” value (Usutu virus (USUV); Drug concentration 33 μM) was “+++ (+++: Complete suppression)” and the “Anti-ZIKV activity (inhibition rate)” value (Zika virus (ZIKV); Drug concentration 11 μM) was “− (−: Inactive)”. The “Anti-ZIKV activity (inhibition rate)” value (Zika virus (ZIKV); Drug concentration 33 μM) was “− (−: Inactive)”.
`CC1(C)OB(c2ccc(C3N(Nc4ccccc4)C(=O)[C@@H]4Cc5ccccc5CN34)cc2)OC1(C)C` (stereo partly drawn) [ZSD-32] gave an inhibition at 11 µM (Usutu virus (USUV); Drug concentration 11 μM) of less than 0%, an inhibition at 33 µM (Usutu virus (USUV); Drug concentration 33 μM) of 0 to 100% and an inhibition at 11 µM (Zika virus (ZIKV); Drug concentration 11 μM) of less than 0%. The inhibition at 33 µM (Zika virus (ZIKV); Drug concentration 33 μM) was less than 0%.
For `O=C1[C@@H]2Cc3ccccc3CN2C(Cc2ccc(O)c(O)c2)N1Nc1ccccc1` (stereo partly drawn) [ZSD-36], the “Anti-USUV activity (inhibition rate)” value (Usutu virus (USUV); Drug concentration 11 μM) was “− (−: Inactive)”, the “Anti-USUV activity (inhibition rate)” value (Usutu virus (USUV); Drug concentration 33 μM) was “+ (+: Partial suppression)” and the “Anti-ZIKV activity (inhibition rate)” value (Zika virus (ZIKV); Drug concentration 11 μM) was “− (−: Inactive)”. The “Anti-ZIKV activity (inhibition rate)” value (Zika virus (ZIKV); Drug concentration 33 μM) was “− (−: Inactive)”.
With `O=C(NNc1ccccc1)C1CCCCN1` (stereo not drawn) [ZXD-2-1] the MIC [1, 2] was 4 µg/mL (≈ 18.2 µM), the MIC [1, 3] was 4 µg/mL (≈ 18.2 µM) and the MIC [1, 4] was 8 µg/mL (≈ 36.5 µM). The MIC [1, 5] was 4 µg/mL (≈ 18.2 µM).
For `O=C(NNc1ccc([N+](=O)[O-])cc1)C1CCc2ccccc2N1` (stereo not drawn) [ZXD-45], the EC50 (dengue virus (DENV)) was 310 nM.
With `O=C(NNc1ccccc1)C1CCc2ccccc2N1C(=O)OCc1ccccc1` (stereo not drawn) [ZXD-51] the “Anti-USUV activity (inhibition rate)” value (Usutu virus (USUV); Drug concentration 11 μM) was “− (−: Inactive)”, the “Anti-USUV activity (inhibition rate)” value (Usutu virus (USUV); Drug concentration 33 μM) was “− (−: Inactive)” and the “Anti-ZIKV activity (inhibition rate)” value (Zika virus (ZIKV); Drug concentration 11 μM) was “− (−: Inactive)”. For the same molecule, the “Anti-ZIKV activity (inhibition rate)” value (Zika virus (ZIKV); Drug concentration 33 μM) was “+ (+: Partial suppression)”.
Molecule `O=C(Nc1ccc([N+](=O)[O-])cc1)C1CCc2ccccc2N1` (stereo not drawn) [ZXD-53] has an inhibition at 11 µM (Usutu virus (USUV); Drug concentration 11 μM) of less than 0%, an inhibition at 33 µM (Usutu virus (USUV); Drug concentration 33 μM) of less than 0% and an inhibition at 11 µM (Zika virus (ZIKV); Drug concentration 11 μM) of less than 0%. It also gave an inhibition at 33 µM (Zika virus (ZIKV); Drug concentration 33 μM) of 0 to 100%.
For `O=C(Nc1ccc([N+](=O)[O-])cc1)C1CCc2ccccc2N1C(=O)O` (stereo not drawn) [ZXD-62], the “Anti-USUV activity (inhibition rate)” value (Usutu virus (USUV); Drug concentration 11 μM) was “− (−: Inactive)”, the “Anti-USUV activity (inhibition rate)” value (Usutu virus (USUV); Drug concentration 33 μM) was “+ (+: Partial suppression)” and the “Anti-ZIKV activity (inhibition rate)” value (Zika virus (ZIKV); Drug concentration 11 μM) was “− (−: Inactive)”. The “Anti-ZIKV activity (inhibition rate)” value (Zika virus (ZIKV); Drug concentration 33 μM) was “+++ (+++: Complete suppression)”.
For `O=C1[C@@H]2CCc3ccccc3N2[C@@H](c2ccc([N+](=O)[O-])cc2)N1Nc1ccc([N+](=O)[O-])cc1` [ZXD-78A], the EC50 (dengue virus (DENV)) was 170 nM.
With `O=C1[C@H]2CCc3ccccc3N2C(c2ccc(O)cc2)N1Nc1ccccc1` (stereo partly drawn) [ZXD-86A] the inhibition at 11 µM (Usutu virus (USUV); Drug concentration 11 μM) was less than 0%, the inhibition at 33 µM (Usutu virus (USUV); Drug concentration 33 μM) was less than 0% and the inhibition at 11 µM (Zika virus (ZIKV); Drug concentration 11 μM) was less than 0%. The inhibition at 33 µM (Zika virus (ZIKV); Drug concentration 33 μM) was greater than 100%.
`O=C1[C@@H]2CCc3ccccc3N2C(c2ccc([N+](=O)[O-])c(O)c2)N1Nc1ccccc1` (stereo partly drawn) [ZXD-95] was tested, and the inhibition at 11 µM (Usutu virus (USUV); Drug concentration 11 μM) was less than 0%, the inhibition at 33 µM (Usutu virus (USUV); Drug concentration 33 μM) was 0 to 100% and the inhibition at 11 µM (Zika virus (ZIKV); Drug concentration 11 μM) was 0 to 100%.
`O=C1[C@@H]2CCc3ccccc3N2[C@@H](c2ccc(O)cc2)N1c1ccc([N+](=O)[O-])cc1` [ZXD-121] gave an inhibition at 11 µM (Usutu virus (USUV); Drug concentration 11 μM) of less than 0%, an inhibition at 33 µM (Usutu virus (USUV); Drug concentration 33 μM) of less than 0% and an inhibition at 11 µM (Zika virus (ZIKV); Drug concentration 11 μM) greater than 100%.
Work on `CC(C)(C)[Si](C)(C)Oc1ccc(C2N(Nc3ccccc3)C(=O)C3CCc4ccccc4N32)cc1` (stereo not drawn) [ZXD-131B] yielded an inhibition at 11 µM (Usutu virus (USUV); Drug concentration 11 μM) of 0 to 100%, an inhibition at 11 µM (Zika virus (ZIKV); Drug concentration 11 μM) of less than 0% and an inhibition at 33 µM (Zika virus (ZIKV); Drug concentration 33 μM) of less than 0%.
`COc1ccc(CC2N(Nc3ccccc3)C(=O)C3CCc4ccccc4N32)cc1OC` (stereo not drawn) [ZXD-140] was tested, and the inhibition at 11 µM (Usutu virus (USUV); Drug concentration 11 μM) was less than 0%, the inhibition at 33 µM (Usutu virus (USUV); Drug concentration 33 μM) was greater than 100% and the inhibition at 11 µM (Zika virus (ZIKV); Drug concentration 11 μM) was 0 to 100%.
Work on `CC(C)(C)[Si](C)(C)Oc1cccc(C2N(Nc3ccccc3)C(=O)C3CCc4ccccc4N32)c1` (stereo not drawn) [ZXD-147B] yielded an inhibition at 11 µM (Usutu virus (USUV); Drug concentration 11 μM) greater than 100% and an inhibition at 11 µM (Zika virus (ZIKV); Drug concentration 11 μM) greater than 100%.
In the case of `CC(C)(C)[Si](C)(C)OCc1ccc(C2N(Nc3ccccc3)C(=O)C3CCc4ccccc4N32)cc1` (stereo not drawn) [ZXD-156B], the inhibition at 11 µM (Usutu virus (USUV); Drug concentration 11 μM) is reported as greater than 100% and the inhibition at 11 µM (Zika virus (ZIKV); Drug concentration 11 μM) is reported as greater than 100%.
`O=C1C2CCc3ccccc3N2C(c2cc3ccccc3s2)N1Nc1ccccc1` (stereo not drawn) [ZXD-178A] was tested, and the “Anti-USUV activity (inhibition rate)” value (Usutu virus (USUV); Drug concentration 11 μM) was “+ (+: Partial suppression)” and the “Anti-ZIKV activity (inhibition rate)” value (Zika virus (ZIKV); Drug concentration 11 μM) was “+++ (+++: Complete suppression)”.
Work on `O=C1C2CCc3ccccc3N2[C@@H](c2cc3ccccc3s2)N1Nc1ccccc1` (stereo partly drawn) [ZXD-178B] yielded an inhibition at 11 µM (Usutu virus (USUV); Drug concentration 11 μM) of 0 to 100% and an inhibition at 11 µM (Zika virus (ZIKV); Drug concentration 11 μM) greater than 100%.
For `O=C1C2CCc3ccccc3N2[C@@H](c2cccc3nonc23)N1Nc1ccccc1` (stereo partly drawn) [ZXD-181A], the “Anti-USUV activity (inhibition rate)” value (Usutu virus (USUV); Drug concentration 11 μM) was “− (−: Inactive)”, the “Anti-USUV activity (inhibition rate)” value (Usutu virus (USUV); Drug concentration 33 μM) was “+ (+: Partial suppression)” and the “Anti-ZIKV activity (inhibition rate)” value (Zika virus (ZIKV); Drug concentration 11 μM) was “+++ (+++: Complete suppression)”. The “Anti-ZIKV activity (inhibition rate)” value (Zika virus (ZIKV); Drug concentration 33 μM) was “+++ (+++: Complete suppression)”.
`CC(C)(C)[Si](C)(C)Oc1ccc(C2N(Cc3ccccc3)C(=O)C3CCc4ccccc4N32)cc1` (stereo not drawn) [ZXD-241B] gave an inhibition at 11 µM (Usutu virus (USUV); Drug concentration 11 μM) of less than 0%, an inhibition at 33 µM (Usutu virus (USUV); Drug concentration 33 μM) greater than 100% and an inhibition at 11 µM (Zika virus (ZIKV); Drug concentration 11 μM) of less than 0%. It also gave an inhibition at 33 µM (Zika virus (ZIKV); Drug concentration 33 μM) greater than 100%.
